Where a SMILES comes first, the peptide text is derived from it. [ ]: non-standard residue; d: D form. The star is where a group is joined. Nle = CCCC[C@H](N)C(=O)O; Nva = CCC[C@H](N)C(=O)O; Cbz = O=C(OCc1ccccc1)*
Columns and labels:
Assay type in all cases: cell-based, human
[1] = system: PRC2 target genes TGFBI, KRT17, FBXO32, ANXA8, DLX2; test: Real-time RT-PCR of representative PRC2 targets in MCF-7 cells
Description: I: MCF-7 cells were untreated or treated with 3-deazaneplanocin (DZNep), 5-azacytidine (5-AzaC) or a combination of 5-azacytidine and trichostatin A (AZA+TSA), and RNA was isolated for gene expression analysis.
(§1) Cells were maintained in DMEM supplemented with 10% fetal bovine serum with glutamine, penicillin, and streptomycin. For drug treatment, cells were seeded the day before the drug treatment. Cells were treated with 5 μM 3-Deazaneplanocin A or 2 μM 5-aza-2′-deoxycytidine (5-AzaC; Sigma) for 72 hours and trichostatin A (TSA; Sigma) at 100 nM for 24 hours. For co-treatment of cells with 5-AzaC and TSA, 5-Aza was added for 48 hours and followed by TSA for 24 hours.
Total RNA was isolated from cell lines using Trizol (Invitrogen) and was converted to cDNA using an RNA Amplification kit (Ambion). […] Quantitative real-time PCR was performed on a PRISM 7900 sequenced detector (Applied Biosystems) using TaqMan probes (Applied Biosystems). Samples were normalized to the levels of 18S ribosomal RNA.
The array results were further confirmed by real-time RT-PCR for representative PRC2 targets.

MCF-7 cells = test: Microarray gene expression analysis (Illumina BeadChip) in MCF-7 cells
Description: as §1
The Smartpool siRNA duplexes of selected PRC2 targets and the non-targeting control were purchased from Dharmacon (Lafayett, Colo.). […] Cells were transfected with 50 nM final concentration of siRNA duplexes using Lipofectamine 2000 (Invitrogen) following the manufacturer's instructions.
Total RNA was isolated from cell lines using Trizol (Invitrogen) and was converted to cDNA using an RNA Amplification kit (Ambion). The microarray hybridisation was performed using the Illumina Gene Expression BeadChip (Illumina) and data analysis was performed using GeneSpring software from Agilent Technologies.
The effects on gene expression were analysed using an Illumina Gene Expression BeadChip. […] To be inclusive for the subsequent analysis, all 1402 genes were considered to be potential PRC2 target genes.
To identify the PRC2 targets specifically repressed in breast cancer cells, the expression profiles of the 140 putative PRC2 target genes in MCF-7 cells and MCF10A cells were compared by gene clustering analysis (FIG. 4C).

[2] = system: EZH2 and SUZ12 protein levels in MCF-7 cells; test: Proteosome inhibitor rescue of 3-deazaneplanocin-induced PRC2 depletion (Western blot); details: 3-deazaneplanocin 18 h then MG132 (5 μM), LLNL (50 μM) or MG115 (20 μM) for 8 h
Description: FIG. 1C depicts the effect of 3-deazaneplanocin in the presence of proteosome inhibitors on EZH2 and SUZ12 protein levels. MCF-7 cells were treated with 3-deazaneplanocin for 18 h, followed by the addition of proteosome inhibitor MG132 (5 μM), LLNL (50 μM), MG115 (20 μM) […] for 8 h. Cells were harvested for Western blot analysis of EZH2 and SUZ12.
Cell pellets were first lysed in RadioImmuno Precipitation Assay (RIPA) buffer, consisting of an aqueous solution of 25 mM Tris-HCl pH 7.6, 150 mM NaCl, 1% Nonidet-P 40 (NP-40), 1% sodium deoxycholate and 0.1% sodium dodecylsulfate (SDS), before further sonicated using a tissue homogeniser to release all the proteins. Equal amounts of protein were separated on SDS-polyacrylamide gels and transferred to polyvinylidene difluoride (PVDF) membranes. The blots were probed with antibodies against: EED (07-368), SUZ12 (07-379), SUV39H1 (07-550), BMI1 (05-637), tri-methylated H3-K27 (07-449), tri-methylated H3-K9 (07-442) and Acetyl-Histone H3 (06-599), and were purchased from Upstate. EZH2 (AC22) and Histone H3 (3H1) were from Cell Signaling. Antibodies against DNA methyl-transferases DNMT1 and DNMT3B were purchased from Alexis Biochemicals.
It has previously been reported that the stability of PRC2 proteins is regulated through proteosome-mediated mechanism. It was therefore tested whether the depletion of PRC2 proteins by 3-deazaneplanocin results from the protein degradation. MCF-7 cells were treated with 3-deazaneplanocin in the presence or absence of three individual proteosome inhibitors MG132, LLNL, and MG115 to test if these treatments would rescue 3-deazaneplanocin-induced PRC2 depletion.

Molecule | downregulation of EZH2 and SUZ12 protein levels in response to 3-deazaneplanocin [2] | also measured
Nc1ncn([C@H]2C[C@H](O)[C@@H](CO)O2)c(=O)n1 [5-AzaC, 5-aza-2′-deoxycytidine, reference compound] | – | induction of TGFBI, KRT17 and FBX032 (real-time RT-PCR) [1]: not; reactivation of the 140 PRC2 targets in general, in comparison with 3-deazaneplanocin (MCF-7 cells; array, 5-AzaC 2 μM, TSA 100 nM): did not result in the significant reactivation
CCCC[C@@H](C=O)NC(=O)[C@H](CC(C)C)NC(=O)[C@H](CC(C)C)NC(C)=O [LLNL] (Ac-Leu-Leu-[Nle]-aldehyde) | prevented the downregulation | –
CCC[C@@H](C=O)NC(=O)[C@H](CC(C)C)NC(=O)[C@H](CC(C)C)NC(=O)OCc1ccccc1 [MG115] (Cbz-Leu-Leu-[Nva]-aldehyde) | prevented the downregulation | –
CC(C)C[C@@H](C=O)NC(=O)[C@H](CC(C)C)NC(=O)[C@H](CC(C)C)NC(=O)OCc1ccccc1 [MG132] (Cbz-Leu-Leu-Leu-aldehyde) | prevented the downregulation | –
SUZ12 siRNA: siRNA targeting SUZ12 mRNA; stem-loop RNA from oligonucleotides SEQ ID NO: 1 and 2 (nucleic acid, expressed or natural sequence; the letters are possibly those of the target site) chain 1: GATCCCCGTCGCAACGGACCAGTTAATTCAAGAGATTAACTGGTCCGTTGCGACTTTTTGGAAA chain 2: TCGATTTCCAAAAAGTCGCAACGGACCAGTTGATCTCTTGAATTAACTGGTCCGTTGCGACGGG | – | number of genes upregulated ≧2-fold after siRNA treatment (MCF-7 cells; siRNA knockdown of PRC2 component): 572 genes

From patent publication US8058258B2, “Methods for cancer therapy and stem cell modulation” (Agency for Science, Technology and Research, priority 2006, dated 2011)
